Residues, ends and D or L forms follow the SMILES beside them. *: point of attachment. Adamantane1carbonyl = O=C(C12CC3CC(CC(C3)C1)C2)*
Test: Compound was evaluated for binding affinity against Opioid receptor delta 1 binding assay: Inactive

Structure (SMILES): CC[C@H](C)[C@H](NC(=O)[C@H](Cc1ccc(O)cc1)NC(=O)[C@@H]1CCCN1C(=O)[C@H](CCCCN)NC(=O)C12CC3CC(CC(C3)C1)C2)C(=O)N[C@@H](CC(C)C)C(=O)O [(S)-2-{(2S,3S)-2-[(S)-2-[((S)-1-{(S)-2-[(Adamantane-1-carbonyl)-amino]-6-amino-hexanoyl}-pyrrolidine-2-carbonyl)-amino]-3-(4-hydroxy-phenyl)-propionylamino]-3-methyl-pentanoylamino}-4-methyl-pentanoic acid] (Adamantane1carbonyl-KPYIL-OH)
- Ki: > 100 µM
